According to patent publication US4224329A, “2-Substitute d-trans-5-aryl-2,3,4,4a,5,9b-hexahydro-1H-pyrido[4,3-b]indoles” (Pfizer Inc., priority 1979, dated 1980):
Counter-ions that a name gives are not always drawn. Like-named read-outs stand apart in the source and are kept apart here.

How the values were obtained:
[1] = system: Amphetamine Stereotypy; assay: Antagonism of Amphetamine Stereotypy in Rats (ED50 for blocking characteristic amphetamine cage movement); format: in vivo; details: for ED50: Rattus norvegicus; for ED50, 24 Hrs.: 1440 min; for ED50, 48 Hrs.: 2880 min; for ED50, 72 Hrs.: 4320 min
Method: The effects of the compounds of the present invention on prominent amphetamine-induced symptoms were studied in rats by a rating scale modeled after the one reported by Quinton and Halliwell, and Weissman. Groups of five rats were placed in a covered plastic cage measuring approximately 26 cm.×42 cm.×16 cm. […] They were then treated 1, 5 and 24 hrs. later with d-amphetamine sulfate, 5 mg./kg. intraperitoneally (i.p.). […] On the basis of dose-response data after amphetamine it was possible to determine the effective dose of the compound necessary to antagonize or block the characteristic amphetamine behavior of cage movement for fifty percent of the rats tested (ED50). The time of rating chosen coincides with the peak action of amphetamine which is 60-80 min. after treatment with this agent.
Employing the above-described procedure, the following 4a,9b-trans compounds were tested for their ability to block the behavior effects of amphetamine, the results being reported as the ED50 in mg./kg. at the indicated times: [drawing 30]
A. The following results were obtained on the mixture of diastereomers for those compounds wherein R contains a secondary alcohol group and on the single diastereomer of the other 4a, 9b-trans hexahydro-pyrido-indoles.
B. The results of tests in which compounds of the invention reported in Part A, above are compared with the corresponding δ-substituted-5-aryl-1,2,3,4-tetrahydropyrido[4,3-b]indoles of U.S. Pat. No. 4,001,263 are summarized below. For each pair the results obtained on the prior art compound (a) are given first and the results for the compound of the invention (b) are given second. Where indicated the test compound was also administered orally (p.o.) and tests were carried out for 48 hours.
C. […] In each case the compounds are of the formula
The tests were carried out for 72 hours.

[2] = target: dopamine receptors (Rattus norvegicus, UniProt P61169); assay: Inhibition of 3H-Spiroperidol Binding to Dopamine Receptors (rat corpus striatum); set-up: species or system rats (Sprague-Dawley CD males); details: 0.5 nM 3H-spiroperidol, 10 minutes at 37° C.
Sequence of dopamine receptors (P61169 whole entry): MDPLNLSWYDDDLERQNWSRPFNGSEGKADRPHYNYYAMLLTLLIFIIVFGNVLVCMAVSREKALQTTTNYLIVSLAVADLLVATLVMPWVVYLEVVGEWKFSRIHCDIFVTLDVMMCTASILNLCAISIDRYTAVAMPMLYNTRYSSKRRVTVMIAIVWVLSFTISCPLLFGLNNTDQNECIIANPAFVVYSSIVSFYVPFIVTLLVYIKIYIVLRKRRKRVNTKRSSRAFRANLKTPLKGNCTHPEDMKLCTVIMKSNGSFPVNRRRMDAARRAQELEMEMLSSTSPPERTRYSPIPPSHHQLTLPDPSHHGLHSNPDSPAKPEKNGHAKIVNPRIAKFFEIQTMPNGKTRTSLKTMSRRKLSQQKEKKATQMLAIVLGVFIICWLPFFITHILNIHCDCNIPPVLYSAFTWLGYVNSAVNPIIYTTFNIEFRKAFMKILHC

[3] = ip, 1 h, i.p., Part B, read-out: ED50, 1 Hr.
[4] = ip, 5 h, i.p., Part B, read-out: ED50, 5 Hrs.
[5] = ip, 24 h, i.p., Part B, read-out: ED50, 24 Hrs.
[6] = sc, 1 h, s.c., Part A, read-out: ED50, 1 Hr.
[7] = sc, 5 h, s.c., Part A, read-out: ED50, 5 Hr.
[8] = sc, 24 h, s.c., Part A, read-out: ED50, 24 Hrs.
[9] = po, 1 h, p.o., Part B, read-out: ED50, 1 Hr.
[10] = po, 5 h, p.o., Part B, read-out: ED50, 5 Hrs.
[11] = po, 24 h, p.o., Part B, read-out: ED50, 24 Hrs.
[12] = sc, 1 h, s.c., Part C, isomers of Examples 13 and 14, read-out: ED50, 1 Hr.
[13] = sc, 5 h, s.c., Part C, isomers of Examples 13 and 14, read-out: ED50, 5 Hrs.
[14] = sc, 24 h, s.c., Part C, isomers of Examples 13 and 14, read-out: ED50, 24 Hrs.
[15] = s.c., Part C, isomers of Examples 13 and 14, hydrochloride
[16] = s.c., Part D, enantiomers by synthesis of Example 21, hydrochloride

Row | SMILES | ED50 [1, 3] [mg/kg] | ED50 [1, 4] [mg/kg] | ED50 [1, 5] [mg/kg] | ED50 [1, 6] [mg/kg] | ED50 [1, 7] [mg/kg] | ED50 [1, 8] [mg/kg] | further results
1 | OC(CCCN1CC[C@H]2[C@H](C1)c1ccccc1N2c1ccccc1)c1ccccc1 (relative stereo) | 0.032 to 0.1 | 0.032 to 0.1 | 0.1 to 0.32 | 0.032 to 0.1 | 0.032 to 0.1 | 0.1 to 0.32 | –
2 | OC(CCCN1CC[C@H]2[C@H](C1)c1ccccc1N2c1ccccc1)c1ccc(F)cc1 (relative stereo) | – | – | – | 0.1 to 0.32 | 0.1 to 0.32 | 0.1 to 0.32 | –
3 | O=C(CCCN1CC[C@H]2[C@H](C1)c1ccccc1N2c1ccccc1)c1ccc(F)cc1 (relative stereo) | – | – | – | ~0.32 | 0.1 to 0.32 | ~0.32 | –
4 | OC(CCCN1CC[C@H]2[C@H](C1)c1cc(F)ccc1N2c1ccc(F)cc1)c1ccccc1 (relative stereo) | – | – | – | 0.1 to 0.32 | 0.1 to 0.32 | < 0.32 | –
5 | O=C(CCCN1CC[C@H]2[C@H](C1)c1cc(F)ccc1N2c1ccc(F)cc1)c1ccc(F)cc1 (relative stereo) | < 1 | < 1 | < 1 | < 1 | < 1 | < 1 | –
6 | c1ccc(CCCN2CC[C@H]3[C@H](C2)c2ccccc2N3c2ccccc2)cc1 (relative stereo) [R = C6 H5 (CH2)3, reference compound] | – | – | – | 3.2 to 10 | 3.2 to 10 | > 10 | –
7 | c1ccc(CN2CC[C@H]3[C@H](C2)c2ccccc2N3c2ccccc2)cc1 (relative stereo) [R = C6 H5 CH2, dl-trans-2-benzyl-2,3,4,4a,5,9b-hexahydro-5-phenyl-1H-pyrido[4,3-b]indole Hydrochloride, reference compound] | – | – | – | ~10 | 3.2 to 32 | > 3.2 | –
8 | c1ccc(N2c3ccccc3[C@H]3CNCC[C@@H]32)cc1 (relative stereo) [R = H, dl-trans-5-Phenyl-2,3,4,4a,5,9b-hexahydro-1H-pyrido[4,3-b]indole, reference compound] | – | – | – | – | – | – | ED50 ([1]; sc, 1 h, read-out: ED50, 1 Hr.): 3.2 to 32 mg/kg; ED50 ([1]; sc, 5 h, read-out: ED50, 5 Hr.): > 3.2 mg/kg; ED50 ([1]; sc, 24 h, read-out: ED50, 24 Hrs.): > 32 mg/kg
9 | OC(CCCN1CC[C@H]2[C@@H](C1)c1ccccc1N2c1ccccc1)c1ccc(F)cc1 (relative stereo) [corresponding 4a, 9bcis analog, reference compound] | – | – | – | 56 | – | – | –
10 | OC(CCCN1CC[C@H]2[C@H](C1)c1cc(F)ccc1N2c1ccc(F)cc1)c1ccc(F)cc1 (relative stereo) [drawing 37, dl-trans-8-Fluoro-5-(p-fluorophenyl)-2-[4-hydroxy-4-(p-fluorophenyl)butyl]-2,3,4,4a,5,9b-hexahydro-1H-pyrido[4,3-b]indole hydrochloride] | 0.032 to 0.1 | 0.032 to 0.1 | 0.032 to 0.1 | 0.032 to 0.1 | 0.032 to 0.1 | 0.032 to 0.1 | ED50 ([1]; ip, 48 h, i.p., Part B, read-out: ED50, 48 Hrs.): 0.1 to 0.32 mg/kg; ED50 [1, 9]: 0.32 to 1 mg/kg; ED50 [1, 10]: 0.1 to 0.32 mg/kg; ED50 [1, 11]: 0.1 to 0.32 mg/kg
11 | OC(CCCN1CC[C@@H]2[C@@H](C1)c1cc(F)ccc1N2c1ccccc1F)c1ccc(F)cc1 (relative stereo) [trans-8-fluoro-5-(o-fluorophenyl)-2-[4-hydroxy-4-(p-fluorophenyl)butyl]-2,3,4,4a,5,9b-hexahydro-1H-pyrido[4,3-b]indole] | 0.1 to 0.32 | ~0.1 | ~0.1 | < 0.32 | < 0.32 | < 0.32 | ED50 [1, 9]: < 1 mg/kg; ED50 [1, 10]: < 1 mg/kg; ED50 [1, 11]: < 1 mg/kg
12 | OC(CCCN1CC[C@H]2[C@H](C1)c1cc(F)ccc1N2c1ccc(F)cc1)c1ccc(F)cc1 (relative stereo) [αβγδ, dl-trans-8-Fluoro-5-(p-fluorophenyl)-2-[4-hydroxy-4-(p-fluorophenyl)butyl]-2,3,4,4a,5,9b-hexahydro-1H-pyrido[4,3-b]indole hydrochloride] | – | – | – | – | – | – | ED50 [1, 12]: 0.032 to 0.1 mg/kg; ED50 [1, 13]: 0.032 to 0.1 mg/kg; ED50 [1, 14]: 0.032 to 0.1 mg/kg; IC50 [2]: 0.021 µM
13 | Cl.OC(CCCN1CC[C@@H]2[C@@H](C1)c1cc(F)ccc1N2c1ccc(F)cc1)c1ccc(F)cc1 (single isomer, unassigned) [α, trans 8-fluoro-5-(p-fluorophenyl)-2-[4-hydroxy-4(p-fluorophenyl)butyl]-2,3,4,4a,5,9b-hexahydro-1H-pyrido[4,3-b]indole hydrochloride] | – | – | – | – | – | – | ED50, 5 Hrs. ([1]; 5 hrs, s.c., Part C, isomers of Examples 13 and 14, hydrochloride, 300 min): 32-100 micrograms/kilograms; ED50, 24 Hrs. [1, 15]: 32-100 micrograms/kilograms; ED50, 48 Hrs. [1, 16]: ca. 1 mg./kg.; ED50, 72 Hrs. [1, 16]: > 10 mg/kg
14 | Cl.OC(CCCN1CCC2C(C1)c1cc(F)ccc1N2c1ccc(F)cc1)c1ccc(F)cc1 (single isomer, unassigned) [β, 8-fluoro-5-(p-fluorophenyl)-2-[4-hydroxy-4-(p-fluorophenyl)butyl]-2,3,4,4a,5,9b-hexahydro-1H-pyrido[4,3-b]indole hydrochloride] | – | – | – | – | – | – | ED50 [1, 12]: > 1 mg/kg; ED50 ([1]; sc, 1 h, s.c., Part D, enantiomers by synthesis of Example 21, read-out: ED50, 1 Hr.): > 10 mg/kg; ED50 [1, 13]: > 1 mg/kg; ED50 ([1]; sc, 5 h, s.c., Part D, enantiomers by synthesis of Example 21, read-out: ED50, 5 Hrs.): 5.7 mg/kg; ED50 [1, 14]: > 1 mg/kg; ED50 ([1]; sc, 24 h, s.c., Part D, enantiomers by synthesis of Example 21, read-out: ED50, 24 Hrs.): > 10 mg/kg; ED50 ([1]; sc, 48 h, s.c., Part D, enantiomers by synthesis of Example 21, read-out: ED50, 48 Hrs.): > 10 mg/kg; ED50 ([1]; sc, 72 h, s.c., Part D, enantiomers by synthesis of Example 21, read-out: ED50, 72 Hrs.): > 10 mg/kg
15 | OC(CCCN1CC[C@@H]2[C@@H](C1)c1cc(F)ccc1N2c1ccc(F)cc1)c1ccc(F)cc1 (single isomer, unassigned) [γ, trans 8-fluoro-5-(p-fluorophenyl)-2-[4-hydroxy-4(p-fluorophenyl)butyl]-2,3,4,4a,5,9b-hexahydro-1H-pyrido[4,3-b]indole hydrochloride] | – | – | – | – | – | – | ED50, 24 Hrs. [1, 15]: 32-100 micrograms/kilograms; ED50, 48 Hrs. [1, 16]: ca. 1 mg./kg.; ED50, 72 Hrs. [1, 16]: > 1 mg/kg; IC50 [2]: 0.025 µM
16 | CN1CCN(CC/C=C2/c3ccccc3Sc3ccc(S(=O)(=O)N(C)C)cc32)CC1 [Navane, cis-9-[3-(4-Methyl-1-piperazinyl)propylidene]-2-(dimethylsulfonamido)thioanthene, reference compound] | – | – | – | – | – | – | ED50 ([1]; po, 1 h, po, Part A, read-out: ED50, 1 Hr.): 0.32 to 1 mg/kg; ED50 ([1]; po, 5 h, po, Part A, read-out: ED50, 5 Hr.): > 10 mg/kg; ED50 ([1]; po, 24 h, po, Part A, read-out: ED50, 24 Hrs.): > 32 mg/kg
17 | OC(CCCN1CCc2c(c3ccccc3n2-c2ccccc2)C1)c1ccccc1 (stereo not drawn) [drawing 40 (a), reference compound] | 3.2 to 10 | 3.2 to 10 | > 10 | – | – | – | –
18 | OC(CCCN1CCc2c(c3cc(F)ccc3n2-c2ccc(F)cc2)C1)c1ccc(F)cc1 (stereo not drawn) [drawing 41 (a), 8-Fluoro-5-(p-fluorophenyl)-2-[4-(p-fluorophenyl)-4-hydroxybutyl]-1,2,3,4-tetrahydro-γ-carboline hydrochloride, reference compound] | 0.1 to 0.32 | 0.1 to 3.2 | 1 to 3.2 | – | – | – | ED50 [1, 9]: 1 to 3.2 mg/kg; ED50 [1, 10]: 0.32 to 1 mg/kg; ED50 [1, 11]: 1 to 3.2 mg/kg
19 | O=C(CCCN1CCc2c(c3cc(F)ccc3n2-c2ccc(F)cc2)C1)c1ccc(F)cc1 [drawing 42 (a), reference compound] | 3.2 to 10 | > 10 | – | – | – | – | –
20 | OC(CCCN1CCc2c(c3cc(F)ccc3n2-c2ccccc2F)C1)c1ccc(F)cc1 (stereo not drawn) [drawing 43 (a), reference compound] | 0.32 to 1 | 1 to 3.2 | > 10 | – | – | – | –
